According to patent publication US20250311727A1, “SUBSTITUTED 2-AMINOAZINES AND SALTS THEREOF, AND USE THEREOF AS HERBICIDAL ACTIVE SUBSTANCES” (BAYER AKTIENGESELLSCHAFT, priority 2022, published 2025):

What was measured:
Format in all cases: in vivo
Amaranthus retroflexus [1] = experiment: Post-emergence herbicidal efficacy at 80 g/ha, AMARE; conditions: rated visually after about 3 weeks vs untreated controls, 100% = plants have died
Outline: (§1)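 Greenhouse post-emergence spray, one-leaf stage (2–3 wk after sowing, sandy loam). Cpd as WP/EC, aqueous + 0.5% additive, 600 l/ha water. Visual rating ~3 wk post-treatment vs untreated; 0% = as control, 100% = plants dead.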

Abutilon theophrasti [2] = experiment: Pre-emergence herbicide efficacy at 80 g/ha, ABUTH; conditions: scored visually after about 3 weeks vs untreated controls, 100% = plants have died
From the text: (§2) Unwanted plants/weeds: • ABUTH: Abutilon theophrasti • ALOMY: Alopecurus myosuroides • AMARE: Amaranthus retroflexus • DIGSA: Digitaria sanguinalis • ECHCG: Echinochloa crus-galli • KCHSC: Kochia scoparia • LOLRI: Lolium rigidum • MATIN: Matricaria inodora • POAAN: Poa annua • POLCO: Polygonum convolvulus • SETVI: Setaria viridis • STEME: Stellaria media • VERPE: Veronica persica • VIOTR: Viola tricolor A. Post-Emergence Herbicidal Efficacy at 320 g/ha
(§3) Seeds of monocotyledonous and dicotyledonous weed plants and crop plants were placed in plastic or organic planting pots and covered with soil. The compounds of the invention, formulated in the form of wettable powders (WP) or as emulsion concentrates (EC), were then applied to the surface of the covering soil as aqueous suspension or emulsion with addition of 0.5% additive at a water application rate equivalent to 600 l/ha. After the treatment, the pots were placed in a greenhouse and kept under good growth conditions for the test plants. After about 3 weeks, the efficacy of the preparations was scored visually in comparison with untreated controls as percentages. For example, 100% activity=the plants have died, 0% activity=like control plants.
(§4) Tables D1 to D12 below show the effects of selected compounds of the general formula (I) according to Table 1 on various harmful plants and an application rate corresponding to 80 g/ha, which were obtained by the experimental procedure mentioned above.

Digitaria sanguinalis [3] = experiment: Post-emergence herbicidal efficacy at 80 g/ha, DIGSA; conditions: rated visually after about 3 weeks vs untreated controls, 100% = plants have died
From the text: as §2
(§5) Seeds of monocotyledonous and dicotyledonous weeds and crop plants were placed in sandy loam in plastic or organic planting pots, covered with soil and cultivated in a greenhouse under controlled growth conditions. 2 to 3 weeks after sowing, the test plants were treated at the one-leaf stage. The compounds of the invention, formulated in the form of wettable powders (WP) or as emulsion concentrates (EC), were then sprayed onto the green parts of the plants as aqueous suspension or emulsion with addition of 0.5% additive at a water application rate of 600 l/ha (converted). After the test plants had been kept in the greenhouse under optimum growth conditions for about 3 weeks, the activity of the preparations was rated visually in comparison to untreated controls. For example, 100% activity=the plants have died, 0% activity=like control plants.
(§6) Tables B1 to B11 below show the effects of selected compounds of the general formula (I) according to Table 1 on various harmful plants and an application rate corresponding to 80 g/ha, which were obtained by the experimental procedure mentioned above.

Abutilon theophrasti [4] = experiment: Post-emergence herbicidal efficacy at 80 g/ha, ABUTH; conditions: rated visually after about 3 weeks vs untreated controls, 100% = plants have died
From the text: as §2, §5, §6

Echinochloa crus-galli [5] = experiment: Post-emergence herbicidal efficacy at 80 g/ha, ECHCG; conditions: rated visually after about 3 weeks vs untreated controls, 100% = plants have died
From the text: as §2, §5, §6

Alopecurus myosuroides = experiment: Pre-emergence herbicide efficacy at 80 g/ha, ALOMY; conditions: scored visually after about 3 weeks vs untreated controls, 100% = plants have died
From the text: as §2, §3, §4

Setaria viridis [6] = experiment: Post-emergence herbicidal efficacy at 80 g/ha, SETVI; conditions: rated visually after about 3 weeks vs untreated controls, 100% = plants have died
From the text: as §2, §5, §6

Setaria viridis [7] = experiment: Pre-emergence herbicide efficacy at 80 g/ha, SETVI
Outline: (§7)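 Visual scoring after about 3 weeks in the greenhouse, expressed as percent activity against untreated controls, where 100% means dead plants and 0% means no difference. Treatment was applied pre-emergence to the covering soil over sown seeds, as WP or EC in water with 0.5% additive, 600 l/ha.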

Echinochloa crus-galli [8] = experiment: Pre-emergence herbicide efficacy at 80 g/ha, ECHCG; conditions: scored visually after about 3 weeks vs untreated controls, 100% = plants have died
Outline: as §7

Kochia scoparia [9] = experiment: Pre-emergence herbicide efficacy at 80 g/ha, KCHSC; conditions: scored visually after about 3 weeks vs untreated controls, 100% = plants have died
From the text: as §2, §3, §4

Digitaria sanguinalis [10] = experiment: Pre-emergence herbicide efficacy at 80 g/ha, DIGSA; conditions: scored visually after about 3 weeks vs untreated controls, 100% = plants have died
Outline: as §7

Veronica persica [11] = experiment: Post-emergence herbicidal efficacy at 80 g/ha, VERPE; conditions: rated visually after about 3 weeks vs untreated controls, 100% = plants have died
Outline: as §1

Veronica persica [12] = experiment: Pre-emergence herbicide efficacy at 80 g/ha, VERPE
Outline: as §7

Lolium rigidum = experiment: Pre-emergence herbicide efficacy at 80 g/ha, LOLRI; conditions: scored visually after about 3 weeks vs untreated controls, 100% = plants have died
From the text: as §2
as §3, with “control plants. […]” for “control plants.”

Kochia scoparia [13] = experiment: Post-emergence herbicidal efficacy at 80 g/ha, KCHSC; conditions: rated visually after about 3 weeks vs untreated controls, 100% = plants have died
Outline: as §1

Polygonum convolvulus [14] = experiment: Pre-emergence herbicide efficacy at 80 g/ha, POLCO; conditions: scored visually after about 3 weeks vs untreated controls, 100% = plants have died
Outline: as §7

Amaranthus retroflexus [15] = experiment: Pre-emergence herbicide efficacy at 80 g/ha, AMARE; conditions: scored visually after about 3 weeks vs untreated controls, 100% = plants have died
Outline: as §7

Viola tricolor [16] = experiment: Pre-emergence herbicide efficacy at 80 g/ha, VIOTR
Outline: as §7

Viola tricolor [17] = experiment: Post-emergence herbicidal efficacy at 80 g/ha, VIOTR; conditions: rated visually after about 3 weeks vs untreated controls, 100% = plants have died
Outline: as §1

Polygonum convolvulus [18] = experiment: Post-emergence herbicidal efficacy at 80 g/ha, POLCO; conditions: rated visually after about 3 weeks vs untreated controls, 100% = plants have died
From the text: as §2
as §5, with “plants. […]” for “plants.”

Matricaria inodora = experiment: Pre-emergence herbicide efficacy at 80 g/ha, MATIN; conditions: scored visually after about 3 weeks vs untreated controls, 100% = plants have died
From the text: as §2, §3, §4

PHBPU = experiment: Post-emergence herbicidal efficacy at 80 g/ha, PHBPU; conditions: rated visually after about 3 weeks vs untreated controls, 100% = plants have died
Procedure: as §5, with “plants. Tables B1 to B11 below show the effects of selected compounds of the general formula (I) according to Table 1 on various harmful plants and an application rate corresponding to 80 g/ha, which were obtained by the experimental procedure mentioned above.” for “plants.”

| SMILES | Post-emergence efficacy at 80 g/ha against AMARE in % (Amaranthus retroflexus [1]) [%] | Pre-emergence efficacy at 80 g/ha against ABUTH in % (Abutilon theophrasti [2]) [%] | Post-emergence efficacy at 80 g/ha against DIGSA in % (Digitaria sanguinalis [3]) [%] | Post-emergence efficacy at 80 g/ha against ABUTH in % (Abutilon theophrasti [4]) [%] | Post-emergence efficacy at 80 g/ha against ECHCG in % (Echinochloa crus-galli [5]) [%] | Pre-emergence efficacy at 80 g/ha against ALOMY in % (Alopecurus myosuroides) [%] | Post-emergence efficacy at 80 g/ha against SETVI in % (Setaria viridis [6]) [%] | Pre-emergence efficacy against SETVI (Setaria viridis [7]) [%] | Pre-emergence efficacy at 80 g/ha against ECHCG in % (Echinochloa crus-galli [8]) [%] | Pre-emergence efficacy at 80 g/ha against KCHSC in % (Kochia scoparia [9]) [%] | Pre-emergence efficacy at 80 g/ha against DIGSA in % (Digitaria sanguinalis [10]) [%] | Post-emergence efficacy at 80 g/ha against VERPE in % (Veronica persica [11]) [%] | Pre-emergence efficacy against VERPE (Veronica persica [12]) [%] | Pre-emergence efficacy at 80 g/ha against LOLRI in % (Lolium rigidum) [%] | Post-emergence efficacy at 80 g/ha against KCHSC in % (Kochia scoparia [13]) [%] | Pre-emergence efficacy at 80 g/ha against POLCO in % (Polygonum convolvulus [14]) [%] | Pre-emergence efficacy at 80 g/ha against AMARE in % (Amaranthus retroflexus [15]) [%] | Pre-emergence efficacy against VIOTR (Viola tricolor [16]) [%] | Post-emergence efficacy at 80 g/ha against VIOTR in % (Viola tricolor [17]) [%] | further results |
| --- | --- | --- | --- | --- | --- | --- | --- | --- | --- | --- | --- | --- | --- | --- | --- | --- | --- | --- | --- | --- |
| Fc1cnc(Nc2cccc(Cl)c2-c2cc(C(F)F)no2)nc1 [Example 1-62] | 100 | 100 | 80 | 90 | 80 | 100 | 100 | 100 | 100 | 100 | 100 | 100 | 100 | 100 | 100 | 80 | 100 | 100 | 100 | – |
| FC(F)c1cc(-c2c(Cl)cccc2Nc2ncc(Cl)cn2)on1 [Example 1-61] | 100 | 90 | 100 | 100 | 100 | 90 | 100 | 100 | 100 | 100 | 100 | 100 | 90 | 90 | 100 | 80 | 100 | 100 | 100 | Post-emergence efficacy at 80 g/ha against POLCO in % (Polygonum convolvulus [18]): 100%; Pre-emergence efficacy at 80 g/ha against MATIN in % (Matricaria inodora): 100%; Post-emergence efficacy at 80 g/ha against PHBPU in % (PHBPU): 100% |
